Measurements as given in PubChem BioAssay (NCI).
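Results reflect a 48-hour exposure of cells in 96-well plates to compound at five concentrations. The concentration for 50% growth inhibition is given as GI50. TGI denotes the concentration required for complete inhibition of growth.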

Experiments:
Test in all cases: inhibition of tumour cell growth, NCI panel, 48 h
MDA-MB-231 breast = test system: MDA-MB-231 breast
SK-MEL-5 melanoma = test system: SK-MEL-5 melanoma
HL-60(TB) leukemia = test system: HL-60(TB) leukemia
SN12C renal = test system: SN12C renal
HT29 colon = test system: HT29 colon
OVCAR-4 ovarian = test system: OVCAR-4 ovarian
UACC-257 melanoma = test system: UACC-257 melanoma
OVCAR-5 ovarian = test system: OVCAR-5 ovarian
NCI-H522 lung = test system: NCI-H522 lung
HS 578T breast = test system: HS 578T breast
M14 melanoma = test system: M14 melanoma
UO-31 renal = test system: UO-31 renal
NCI-H226 lung = test system: NCI-H226 lung
NCI-H460 lung = test system: NCI-H460 lung
LOX IMVI melanoma = test system: LOX IMVI melanoma
HCT-116 colon = test system: HCT-116 colon
RXF 393 renal = test system: RXF 393 renal
OVCAR-3 ovarian = test system: OVCAR-3 ovarian
SW-620 colon = test system: SW-620 colon
NCI-H23 lung = test system: NCI-H23 lung
DU-145 prostate = test system: DU-145 prostate
PC-3 prostate = test system: PC-3 prostate
SF-268 CNS = test system: SF-268 CNS
SF-539 CNS = test system: SF-539 CNS
SNB-19 CNS = test system: SNB-19 CNS
SK-MEL-28 melanoma = test system: SK-MEL-28 melanoma
T-47D breast = test system: T-47D breast
HOP-92 NSCLC = test system: HOP-92 NSCLC
IGROV1 ovarian = test system: IGROV1 ovarian
NCI/ADR-RES ovarian = test system: NCI/ADR-RES ovarian
MCF7 breast = test system: MCF7 breast
BT-549 breast = test system: BT-549 breast
TK-10 renal = test system: TK-10 renal
ACHN renal = test system: ACHN renal
HOP-62 NSCLC = test system: HOP-62 NSCLC
EKVX NSCLC = test system: EKVX NSCLC
SK-OV-3 ovarian = test system: SK-OV-3 ovarian
CCRF-CEM leukemia = test system: CCRF-CEM leukemia
SK-MEL-2 melanoma = test system: SK-MEL-2 melanoma
SR leukemia = test system: SR leukemia
MOLT-4 leukemia = test system: MOLT-4 leukemia
OVCAR-8 ovarian = test system: OVCAR-8 ovarian
786-0 renal = test system: 786-0 renal
KM12 colon = test system: KM12 colon
A549 NSCLC = test system: A549 NSCLC
A498 renal = test system: A498 renal
MDA-MB-435 = test system: MDA-MB-435
U251 CNS = test system: U251 CNS

COc1cc(-c2nn(-c3ccc(NC(=O)NCCNS(=O)(=O)c4ccc(F)cc4)cc3)cc2-c2ccncc2)ccc1Cl
GI50 (MDA-MB-231 breast): 0.65 µM | TGI (MDA-MB-231 breast): 3.38 µM | GI50 (SK-MEL-5 melanoma): 0.453 µM | TGI (SK-MEL-5 melanoma): 1.68 µM | GI50 (HL-60(TB) leukemia): 0.391 µM | TGI (HL-60(TB) leukemia): 2.26 µM | GI50 (SN12C renal): 0.733 µM | TGI (SN12C renal): 8.44 µM | GI50 (HT29 colon): 0.318 µM | TGI (HT29 colon): 1.23 µM | GI50 (OVCAR-4 ovarian): 1.04 µM | TGI (OVCAR-4 ovarian): > 100 µM | GI50 (UACC-257 melanoma): 1.57 µM | TGI (UACC-257 melanoma): 4.73 µM | GI50 (OVCAR-5 ovarian): 1.21 µM | TGI (OVCAR-5 ovarian): > 100 µM | GI50 (NCI-H522 lung): 0.295 µM | TGI (NCI-H522 lung): 2.7 µM | GI50 (HS 578T breast): 0.453 µM | TGI (HS 578T breast): 5.98 µM | GI50 (M14 melanoma): 0.324 µM | TGI (M14 melanoma): 1.53 µM | GI50 (UO-31 renal): 2.38 µM | TGI (UO-31 renal): > 100 µM | GI50 (NCI-H226 lung): 1.38 µM | TGI (NCI-H226 lung): 7.3 µM | GI50 (NCI-H460 lung): 0.387 µM | TGI (NCI-H460 lung): 1.51 µM | GI50 (LOX IMVI melanoma): 0.556 µM | TGI (LOX IMVI melanoma): 2.88 µM | GI50 (HCT-116 colon): 0.339 µM | TGI (HCT-116 colon): 1.77 µM | GI50 (RXF 393 renal): 0.247 µM | TGI (RXF 393 renal): 0.888 µM | GI50 (OVCAR-3 ovarian): 0.246 µM | TGI (OVCAR-3 ovarian): 0.665 µM | GI50 (SW-620 colon): 0.529 µM | TGI (SW-620 colon): 12.7 µM | GI50 (NCI-H23 lung): 0.632 µM | TGI (NCI-H23 lung): 5.18 µM | GI50 (DU-145 prostate): 0.387 µM | TGI (DU-145 prostate): 10.8 µM | GI50 (PC-3 prostate): 0.453 µM | TGI (PC-3 prostate): 4.75 µM | GI50 (SF-268 CNS): 0.629 µM | TGI (SF-268 CNS): 5 µM | GI50 (SF-539 CNS): 0.281 µM | TGI (SF-539 CNS): 0.965 µM | GI50 (SNB-19 CNS): 0.857 µM | TGI (SNB-19 CNS): > 100 µM | GI50 (SK-MEL-28 melanoma): 1.42 µM | TGI (SK-MEL-28 melanoma): 9.29 µM | GI50 (T-47D breast): 0.733 µM | TGI (T-47D breast): 5.56 µM | GI50 (HOP-92 NSCLC): 1.45 µM | TGI (HOP-92 NSCLC): 5.91 µM | GI50 (IGROV1 ovarian): 0.795 µM | TGI (IGROV1 ovarian): 8.4 µM | GI50 (NCI/ADR-RES ovarian): > 100 µM | TGI (NCI/ADR-RES ovarian): > 100 µM | GI50 (MCF7 breast): 0.3 µM | TGI (MCF7 breast): > 100 µM | GI50 (BT-549 breast): 0.782 µM | TGI (BT-549 breast): 4.95 µM | GI50 (TK-10 renal): 1.89 µM | TGI (TK-10 renal): 6.33 µM | GI50 (ACHN renal): 2.21 µM | TGI (ACHN renal): 8.06 µM | GI50 (HOP-62 NSCLC): 0.544 µM | TGI (HOP-62 NSCLC): 51 µM | GI50 (EKVX NSCLC): 1.32 µM | TGI (EKVX NSCLC): > 100 µM | GI50 (SK-OV-3 ovarian): 0.705 µM | TGI (SK-OV-3 ovarian): 8.15 µM | GI50 (CCRF-CEM leukemia): 0.459 µM | TGI (CCRF-CEM leukemia): > 100 µM | GI50 (SK-MEL-2 melanoma): 0.553 µM | TGI (SK-MEL-2 melanoma): 2.62 µM | GI50 (SR leukemia): 0.427 µM | TGI (SR leukemia): 3.01 µM | GI50 (MOLT-4 leukemia): 0.583 µM | TGI (MOLT-4 leukemia): 3.99 µM | GI50 (OVCAR-8 ovarian): 0.588 µM | TGI (OVCAR-8 ovarian): 5.38 µM | GI50 (786-0 renal): 0.901 µM | TGI (786-0 renal): 6.3 µM | GI50 (KM12 colon): 0.39 µM | TGI (KM12 colon): 2.03 µM | GI50 (A549 NSCLC): 1.92 µM | TGI (A549 NSCLC): 23.1 µM | GI50 (A498 renal): 0.389 µM | TGI (A498 renal): 2.18 µM | GI50 (MDA-MB-435): 0.17 µM | TGI (MDA-MB-435): 0.418 µM | GI50 (U251 CNS): 0.409 µM | TGI (U251 CNS): 2.49 µM
